Test results: patent US12144791B2, “KRAS agonists, pharmaceutical compositions, and uses in managing cancer” (Emory University, priority 2019, dated 2024)
Entries after “also recorded” stand apart in the source; their conditions may differ.

Columns and labels:
NSCLC cells = assay: Colony formation assay; type: cell-based, human; conditions: 10 μM, 10 days; A549, H358, H157, Calu-1, H1972 vs H292, HCC827, H1975, H322
KRAS WT = KRAS WT (Homo sapiens, UniProt P01116); assay: Thermal shift assay, purified KRAS WT; type: binding; conditions: increasing concentrations
Procedure: (§1) Melting temperature (Tm) values of DMSO Ctrl and 15 μM of KRA-533 are shown.
(§2) Melting temperature (Tm) values of DMSO control and 15 μM KRA-533 are shown.
(§3) To test whether KRA-533 directly binds to KRAS, a thermal shift assay was employed. […] To further assess whether KRA-533 activates KRAS directly, an in vitro cell-free GDP-GTP exchange experiment was carried out. Purified WT, G12C, G12D or G13D mutant KRAS proteins were incubated with purified GEF (RASGRP1) and GAP (RASA1) proteins in reaction buffer containing [γ-35S]-GTP in the absence or presence of increasing concentrations of KRA-533 at 25° C. for 60 min. KRAS activity was quantified by liquid scintillation counting. […] These findings indicate that KRA-533 not only activates WT KRAS but also has the capacity to further enhance KRAS activity of mutant KRAS.
(§4) To further test this intracellularly, GFP-tagged WT, S17A, K117A and AA KRAS mutants were exogenously transfected into A549 cells. […] Activities of exogenous GFP-tagged WT and KRAS mutants were analyzed by Western blot using GFP antibody.

KRAS G12D [1] = target: T1, KRAS G12D (Homo sapiens, UniProt P01116, G12D); assay: Thermal shift assay, purified KRAS G12D; type: binding; conditions: increasing concentrations
Procedure: as §1, §3

KRAS S17A/K117A (AA) = target: T2, KRAS S17A/K117A (AA) (Homo sapiens, UniProt P01116, K117A/S17A); assay: Thermal shift assay, purified KRAS S17A/K117A (AA); type: binding
T2 construct: made in house
Procedure: as §2, §4

KRAS G12D [2] = target: T1, KRAS G12D; assay: In vitro cell-free GDP-GTP exchange, KRAS G12D; type: biochemical; conditions: with GEF (RASGRP1) and GAP (RASA1), 25° C., 60 min
Procedure: GTPγS, purified GFP (RASGRP1, 180 nM) and GAP (RASA1, 180 nM) at 25° C. in the presence or absence of increasing concentrations of KRA-533.
as §3

KRAS S17A = target: T3, KRAS S17A (Homo sapiens, UniProt P01116, S17A); assay: In vitro cell-free GDP-GTP exchange, KRAS S17A; type: biochemical; conditions: 15 μM
T3 construct: made in house
Procedure: GTPγS, purified GFP (RASGRP1, 180 nM) and GAP (RASA1, 180 nM) at 25° C. in the presence or absence of 15 μM KRA-533. The radioactivity remaining on the protein after intensive washing was quantified by liquid scintillation.
as §4

GFP-tagged KRAS WT = target: T4, GFP-tagged KRAS WT (Homo sapiens, UniProt P01116); assay: Raf-1-RBD pull-down of exogenous GFP-tagged KRAS WT in A549 cells; type: cell-based; conditions: 15 μM, 48 h
T4 construct: expressed in transfected cells; host or cells: A549
Procedure: (§5) The GFP-tagged exogenous KRAS-GTP (GFP-KRAS-GTP) was analyzed by Western blot using anti-GFP antibody.
as §4

GFP-tagged KRAS S17A = target: T5, GFP-tagged KRAS S17A (Homo sapiens, UniProt P01116, S17A); assay: Raf-1-RBD pull-down of exogenous GFP-tagged KRAS S17A in A549 cells; type: cell-based; conditions: 15 μM, 48 h
T5 construct: expressed in transfected cells; host or cells: A549
Procedure: as §5, §4

[3] = Single-dose maximum tolerated dose (MTD); type: in vivo
Procedure: To define the appropriate doses of KRA-533 for in vivo experimentation, standard single-dose maximum tolerated dose (MTD) was determined. Nu/Nu nude mice were treated with a single dose of 150, 300 or 400 mg/kg i.p., followed by toxicity observations. […] Based on these findings, mice might die mainly from liver and kidney damage at a single 400 mg/kg dose. Thus, the single dose MTD of KRA-533 ranges from 300 to 400 mg/kg. One tenth of single-dose MTD was contemplated (˜30-40 mg/kg) for continuous treatment, e.g., between 10 and 30 mg/kg/day.

[4] = tested on: A549 xenografts bearing mutant KRAS; assay: A549 lung cancer xenografts bearing KRAS mutation (G12S); type: in vivo
Procedure: Tumor volume was measured once every 2 days (left panel). Tumor volumes of 6 individual mice in each group were compared on day 28 (right panel). After 28 days, the mice were sacrificed, and the tumors were removed and analyzed.
Expression levels of active caspase-3, cleaved PARP, Beclin-1 and LC3-II in tumor tissues were analyzed by Western blot.
To test the potency of KRA-533 in vivo, lung cancer xenografts derived from A549 cells bearing KRAS mutation (G12S) were treated with increasing doses (0, 7.5, 15, and 30 mg/kg/day) of KRA-533 i.p. for 28 days. […] To assess whether KRA-533 induced suppression of tumor growth via apoptosis and autophagy in vivo, representative samples from harvested tumor tissues were analyzed by immunohistochemistry (IHC) for active caspase-3 or LC3-II.

[5] = tested on: lung tumors of LSL-KRASG12D LKB1fl/fl (KL) mice; assay: Genetically engineered LSL-KRASG12D LKB1fl/fl (KL) mouse model; type: in vivo
Procedure: After administration of adenovirus Cre recombinase in KL mice for 6 weeks, mice were treated with KRA-533 (20 mg/kg/d) for 8 weeks (n=6 each group). Survival of mice was calculated up to 8 weeks before euthanization in the control group versus the KRA-533 treatment group.
It is reported that the co-occurrence of KRAS and LKB1(STK11) mutations could label a more aggressive molecular subtype of NSCLC. Around half of KRAS-mutant lung cancer patients also carry LKB1 mutations, therefore, it will be important to test whether KRA-533 is also effective for the treatment of KRAS-mutant lung cancers with mutation or loss. LSL-KRASG12D LKB1fl/fl (KL) mice were generated by intercrossing B6.129S4-Krastm3Tyj/J (KRASG12D) and FVB; 129S6-Stk11tm1Rdp/Nci (LKB1) strains two generations and genotyped to confirm homozygosity for the LKB1 allele. These mice contain a KRASG12D LSL knock-in allele and a floxed allele of LKB1 (LKB1fl/fl). KRA-533 (20 mg/kg/d) or vehicle control was administered i.p. starting at 6 weeks post AdeCre delivery. After treatment for 8 weeks, mice were euthanized, and lung tumors were analyzed as described above.

[6] = 0, 7.5, 15, and 30 mg/kg/day i.p. for 28 days

O=C(CBr)NCCCCc1ccc(C(=O)O)cc1 [KRA-533, 4-(4-(2-bromoacetamido)butyl)benzoic acid]
cell growth suppression (colony formation), KRAS mutant versus non-mutant cell lines (NSCLC cells): relatively more sensitive to KRA-533-mediated cell growth suppression than those without KRAS mutation | melting temperature (Tm) / binding, KRAS WT (KRAS WT): Dose dependent increases in melting temperature (Tm); also recorded: could bind | melting temperature (Tm) / binding, KRAS G12D (KRAS G12D [1]): Dose dependent increases in melting temperature (Tm) | binding (thermal shift), AA (S17A/K117A) KRAS (KRAS S17A/K117A (AA)): failed to bind | KRAS activity (liquid scintillation), KRAS G12D (KRAS G12D [2]): further enhanced the activities of active KRAS mutants | KRAS activity (liquid scintillation), KRAS S17A (KRAS S17A): directly activated | activity of exogenous GFP-tagged WT KRAS (GFP-KRAS-GTP) (GFP-tagged KRAS WT): activated exogenous WT and S17A | activity of exogenous GFP-tagged S17A KRAS (GFP-KRAS-GTP) (GFP-tagged KRAS S17A): activated exogenous WT and S17A | MTD ([3]; mouse, in vivo, ip, Nu/Nu nude mice): 300 to 400 mg/kg | Alanine transaminase (ALT) ([3]; single dose of 400 mg/kg): significantly elevated | aspartate transaminase (AST) ([3]; single dose of 400 mg/kg): significantly elevated | blood urea nitrogen (BUN) ([3]; single dose of 400 mg/kg): significantly elevated | death of mice (time) ([3]; single dose of 400 mg/kg): 8 days | weight loss or other toxicities (hematologic, liver and kidney function) ([3]; single dose of 150 or 300 mg/kg i.p.): did not cause weight loss or other toxicities | apoptosis and autophagy in tumor tissues (IHC active caspase-3, LC3-II) [4, 6]: induced apoptosis and autophagy in tumor tissues in a dose-dependent manner | tumor growth [4, 6]: suppressed tumor growth in a dose-dependent manner | blood cells (WBC, RBC and PLT), BUN and ALT/AST ([4]; 7.5˜30 mg/kg/d): in the normal range | body weight ([4]; 7.5˜30 mg/kg/d): no weight loss | tolerability ([4]; 7.5˜30 mg/kg/d): well tolerated without significant toxicity | histopathology of normal tissues (brain, heart, lung, liver, spleen, kidney and intestine) ([4]; 7.5˜30 mg/kg/day): no evidence of normal tissue toxicities | active KRAS in tumor tissues (Raf-1-RBD pull-down) ([4]; tumor tissue lysates after 28 days): accumulation of active KRAS in tumor tissues | tumor growth ([5]; 20 mg/kg/d i.p. from 6 weeks post AdeCre, 8 weeks): significantly suppressed tumor growth | survival ([5]; 20 mg/kg/d i.p., up to 8 weeks): prolonged survival
